Test results from PMC10176470, “Engaging a Non-catalytic Cysteine Residue Drives Potent and Selective Inhibition of Caspase-6” (Journal of the American Chemical Society, 2023).

What was measured:
[1] = target: caspase-2 (C2) (Homo sapiens, UniProt P42575); test: Caspase-2 biochemical activity assay with fluorogenic substrate
From the text: (§1) Error bars represent the standard deviation of thre replicate measurements. […] Activity measured by the cleavage of aminofluorocoumarin-labeled peptides (see the Supporting Information for sequences). C = caspase.

[2] = target: proteins of HEK293T cells transiently overexpressing caspase-6 (Homo sapiens, UniProt P62753); test: SILAC proteomics / in-gel fluorescence, competition of probe 13-t labeling by 3a; conditions: Comp; protein RPS6 P62753
[3] = target: T1, proteins of HEK293T cells transiently overexpressing caspase-6 (Homo sapiens, UniProt P54136); test: as above
T1 sequence (P54136 1-660): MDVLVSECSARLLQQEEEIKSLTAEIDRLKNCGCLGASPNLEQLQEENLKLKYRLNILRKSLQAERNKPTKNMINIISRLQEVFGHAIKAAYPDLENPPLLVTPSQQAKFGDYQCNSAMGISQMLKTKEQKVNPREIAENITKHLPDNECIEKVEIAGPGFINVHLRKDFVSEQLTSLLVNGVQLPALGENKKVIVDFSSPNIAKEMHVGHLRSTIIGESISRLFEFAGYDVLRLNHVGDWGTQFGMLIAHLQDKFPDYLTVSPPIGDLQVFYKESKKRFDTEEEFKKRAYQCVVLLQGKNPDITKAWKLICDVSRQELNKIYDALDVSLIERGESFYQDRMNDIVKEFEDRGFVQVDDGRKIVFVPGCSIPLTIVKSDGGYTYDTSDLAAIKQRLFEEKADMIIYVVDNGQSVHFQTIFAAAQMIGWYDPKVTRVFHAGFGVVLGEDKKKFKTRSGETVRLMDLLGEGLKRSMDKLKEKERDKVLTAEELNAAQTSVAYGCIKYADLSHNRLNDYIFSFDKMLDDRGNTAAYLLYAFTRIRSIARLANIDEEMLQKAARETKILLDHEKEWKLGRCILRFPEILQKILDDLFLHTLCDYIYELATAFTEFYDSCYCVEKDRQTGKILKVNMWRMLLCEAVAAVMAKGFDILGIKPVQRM

[4] = target: proteins of HEK293T cells transiently overexpressing caspase-6 (Homo sapiens, UniProt Q14204); test: as above
Chain of proteins of HEK293T cells transiently overexpressing caspase-6 (Homo sapiens, UniProt Q14204) (Q14204 whole entry): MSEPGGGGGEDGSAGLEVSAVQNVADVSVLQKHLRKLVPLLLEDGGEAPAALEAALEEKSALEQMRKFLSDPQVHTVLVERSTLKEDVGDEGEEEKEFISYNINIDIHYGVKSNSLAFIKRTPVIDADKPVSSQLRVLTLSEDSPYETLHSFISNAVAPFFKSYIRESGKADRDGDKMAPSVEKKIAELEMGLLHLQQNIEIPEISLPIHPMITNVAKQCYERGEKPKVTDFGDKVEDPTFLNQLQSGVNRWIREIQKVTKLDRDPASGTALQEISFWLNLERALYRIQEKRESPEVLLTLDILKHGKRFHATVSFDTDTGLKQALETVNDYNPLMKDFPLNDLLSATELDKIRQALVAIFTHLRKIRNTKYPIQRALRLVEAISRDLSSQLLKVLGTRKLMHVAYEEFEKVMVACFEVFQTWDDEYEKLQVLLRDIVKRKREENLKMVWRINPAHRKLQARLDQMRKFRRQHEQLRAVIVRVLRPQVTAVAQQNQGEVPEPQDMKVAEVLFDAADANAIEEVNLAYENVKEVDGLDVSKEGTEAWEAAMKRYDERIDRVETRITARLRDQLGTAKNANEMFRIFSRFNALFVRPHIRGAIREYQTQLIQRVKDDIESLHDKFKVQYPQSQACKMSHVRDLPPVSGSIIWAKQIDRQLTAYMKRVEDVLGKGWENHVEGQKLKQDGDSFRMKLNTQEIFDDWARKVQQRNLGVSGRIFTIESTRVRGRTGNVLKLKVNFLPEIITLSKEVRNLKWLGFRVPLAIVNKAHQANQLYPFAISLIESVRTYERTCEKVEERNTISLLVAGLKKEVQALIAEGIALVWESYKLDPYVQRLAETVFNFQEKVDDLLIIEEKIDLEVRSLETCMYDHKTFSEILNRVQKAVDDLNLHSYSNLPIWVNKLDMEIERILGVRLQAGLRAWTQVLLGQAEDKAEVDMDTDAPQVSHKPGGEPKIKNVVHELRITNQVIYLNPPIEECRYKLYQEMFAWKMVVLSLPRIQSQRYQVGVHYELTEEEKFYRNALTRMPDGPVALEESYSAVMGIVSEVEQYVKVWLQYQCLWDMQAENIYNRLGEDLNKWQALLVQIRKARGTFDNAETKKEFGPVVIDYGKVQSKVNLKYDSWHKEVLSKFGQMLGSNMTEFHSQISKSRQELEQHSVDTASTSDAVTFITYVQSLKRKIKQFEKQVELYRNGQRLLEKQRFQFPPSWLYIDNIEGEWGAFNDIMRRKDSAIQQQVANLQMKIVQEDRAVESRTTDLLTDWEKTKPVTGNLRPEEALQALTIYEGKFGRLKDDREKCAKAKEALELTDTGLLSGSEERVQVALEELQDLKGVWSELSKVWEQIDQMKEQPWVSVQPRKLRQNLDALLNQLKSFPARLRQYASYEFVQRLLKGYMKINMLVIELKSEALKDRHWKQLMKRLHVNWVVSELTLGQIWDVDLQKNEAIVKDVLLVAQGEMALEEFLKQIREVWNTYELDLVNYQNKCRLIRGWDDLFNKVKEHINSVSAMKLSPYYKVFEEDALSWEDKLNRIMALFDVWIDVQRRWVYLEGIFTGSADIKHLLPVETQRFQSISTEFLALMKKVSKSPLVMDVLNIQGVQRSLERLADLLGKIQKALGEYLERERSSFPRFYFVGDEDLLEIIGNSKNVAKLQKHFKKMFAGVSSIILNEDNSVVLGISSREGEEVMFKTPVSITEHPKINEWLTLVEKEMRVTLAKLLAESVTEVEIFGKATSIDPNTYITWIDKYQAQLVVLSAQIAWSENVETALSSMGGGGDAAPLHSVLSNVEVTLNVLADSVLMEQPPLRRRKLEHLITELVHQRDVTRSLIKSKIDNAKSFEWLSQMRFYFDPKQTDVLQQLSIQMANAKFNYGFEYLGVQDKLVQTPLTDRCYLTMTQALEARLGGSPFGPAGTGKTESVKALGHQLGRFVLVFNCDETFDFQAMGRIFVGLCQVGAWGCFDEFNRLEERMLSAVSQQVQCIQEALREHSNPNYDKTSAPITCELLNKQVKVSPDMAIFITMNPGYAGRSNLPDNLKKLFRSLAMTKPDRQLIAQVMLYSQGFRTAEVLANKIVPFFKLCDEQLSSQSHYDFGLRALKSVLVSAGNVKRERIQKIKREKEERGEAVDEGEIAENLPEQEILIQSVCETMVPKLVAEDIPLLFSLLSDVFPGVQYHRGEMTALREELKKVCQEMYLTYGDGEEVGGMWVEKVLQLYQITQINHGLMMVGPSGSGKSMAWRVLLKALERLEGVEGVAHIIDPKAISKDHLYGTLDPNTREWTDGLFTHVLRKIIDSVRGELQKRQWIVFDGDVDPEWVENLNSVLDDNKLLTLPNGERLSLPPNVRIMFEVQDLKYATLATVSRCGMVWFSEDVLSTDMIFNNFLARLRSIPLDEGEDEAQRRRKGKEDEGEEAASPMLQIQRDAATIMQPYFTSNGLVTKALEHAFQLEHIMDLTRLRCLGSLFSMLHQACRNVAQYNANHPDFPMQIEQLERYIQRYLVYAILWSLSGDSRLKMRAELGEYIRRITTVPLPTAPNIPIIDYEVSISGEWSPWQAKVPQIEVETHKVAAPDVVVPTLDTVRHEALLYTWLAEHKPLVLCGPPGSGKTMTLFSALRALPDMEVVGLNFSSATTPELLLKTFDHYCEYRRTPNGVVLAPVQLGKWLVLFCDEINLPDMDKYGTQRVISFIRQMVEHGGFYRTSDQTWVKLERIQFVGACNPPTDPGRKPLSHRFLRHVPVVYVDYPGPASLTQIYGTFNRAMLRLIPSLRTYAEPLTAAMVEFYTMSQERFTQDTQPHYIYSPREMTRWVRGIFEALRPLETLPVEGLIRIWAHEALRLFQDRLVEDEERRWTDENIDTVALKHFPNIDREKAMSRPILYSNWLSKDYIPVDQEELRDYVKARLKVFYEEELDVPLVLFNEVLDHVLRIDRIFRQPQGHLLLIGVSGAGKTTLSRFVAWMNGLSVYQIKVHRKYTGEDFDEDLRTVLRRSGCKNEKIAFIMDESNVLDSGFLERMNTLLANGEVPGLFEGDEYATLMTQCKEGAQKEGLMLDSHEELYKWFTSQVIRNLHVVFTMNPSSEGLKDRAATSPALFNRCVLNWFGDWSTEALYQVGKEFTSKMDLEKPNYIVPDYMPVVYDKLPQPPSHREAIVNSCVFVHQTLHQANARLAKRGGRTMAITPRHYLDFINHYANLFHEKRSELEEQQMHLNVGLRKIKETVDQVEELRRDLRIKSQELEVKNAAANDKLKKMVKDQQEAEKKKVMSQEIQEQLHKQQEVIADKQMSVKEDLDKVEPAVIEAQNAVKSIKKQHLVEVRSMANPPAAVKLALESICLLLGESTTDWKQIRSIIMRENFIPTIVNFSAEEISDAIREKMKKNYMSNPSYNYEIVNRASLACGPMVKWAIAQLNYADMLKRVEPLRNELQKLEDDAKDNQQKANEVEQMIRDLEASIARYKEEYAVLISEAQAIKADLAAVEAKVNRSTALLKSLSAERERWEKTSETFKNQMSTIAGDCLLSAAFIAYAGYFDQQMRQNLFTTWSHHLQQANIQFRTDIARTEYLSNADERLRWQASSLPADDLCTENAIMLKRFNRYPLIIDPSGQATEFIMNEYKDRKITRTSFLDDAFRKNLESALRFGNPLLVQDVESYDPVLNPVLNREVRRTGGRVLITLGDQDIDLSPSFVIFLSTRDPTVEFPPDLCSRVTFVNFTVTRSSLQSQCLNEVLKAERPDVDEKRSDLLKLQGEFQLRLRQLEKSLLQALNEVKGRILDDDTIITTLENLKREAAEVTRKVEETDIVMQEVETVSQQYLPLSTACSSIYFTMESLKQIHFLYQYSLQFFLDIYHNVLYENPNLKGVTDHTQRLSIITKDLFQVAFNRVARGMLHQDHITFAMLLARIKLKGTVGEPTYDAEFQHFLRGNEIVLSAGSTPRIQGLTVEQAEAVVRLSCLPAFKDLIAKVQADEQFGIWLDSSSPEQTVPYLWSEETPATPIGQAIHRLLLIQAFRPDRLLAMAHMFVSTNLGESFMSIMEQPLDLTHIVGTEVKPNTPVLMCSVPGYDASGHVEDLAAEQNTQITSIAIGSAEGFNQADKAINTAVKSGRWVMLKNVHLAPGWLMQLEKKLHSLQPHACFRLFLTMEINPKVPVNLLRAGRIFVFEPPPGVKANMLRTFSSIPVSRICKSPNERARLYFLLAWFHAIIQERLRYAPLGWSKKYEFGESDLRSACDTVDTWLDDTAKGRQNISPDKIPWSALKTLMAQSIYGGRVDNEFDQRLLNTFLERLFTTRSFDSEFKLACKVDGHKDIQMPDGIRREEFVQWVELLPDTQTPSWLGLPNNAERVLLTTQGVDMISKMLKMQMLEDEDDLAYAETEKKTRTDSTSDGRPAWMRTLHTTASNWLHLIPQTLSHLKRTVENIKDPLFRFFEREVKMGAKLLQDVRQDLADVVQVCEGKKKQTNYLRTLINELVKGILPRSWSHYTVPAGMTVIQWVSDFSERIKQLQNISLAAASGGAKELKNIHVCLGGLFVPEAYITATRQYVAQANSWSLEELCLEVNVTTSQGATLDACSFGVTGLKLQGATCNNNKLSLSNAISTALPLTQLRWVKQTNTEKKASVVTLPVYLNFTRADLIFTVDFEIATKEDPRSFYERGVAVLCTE

[5] = target: proteins of HEK293T cells transiently overexpressing caspase-6 (Homo sapiens, UniProt Q04917); test: as above; conditions: Comp; protein YWHAH Q04917
Chain of proteins of HEK293T cells transiently overexpressing caspase-6 (Homo sapiens, UniProt Q04917) (Q04917 whole entry): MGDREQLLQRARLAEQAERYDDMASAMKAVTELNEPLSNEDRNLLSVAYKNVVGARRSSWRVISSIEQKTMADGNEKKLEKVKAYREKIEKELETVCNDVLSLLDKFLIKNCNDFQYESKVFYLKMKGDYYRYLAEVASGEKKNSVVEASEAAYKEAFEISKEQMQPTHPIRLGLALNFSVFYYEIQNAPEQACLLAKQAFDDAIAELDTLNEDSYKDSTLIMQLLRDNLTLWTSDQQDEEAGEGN

[6] = target: proteins of HEK293T cells transiently overexpressing caspase-6 (Homo sapiens, UniProt P11388); test: as above; conditions: Comp; protein TOP2A P11388
[7] = target: proteins of HEK293T cells transiently overexpressing caspase-6 (Homo sapiens, UniProt Q12905); test: as above; conditions: Comp; protein ILF2 Q12905
[8] = target: proteins of HEK293T cells transiently overexpressing caspase-6 (Homo sapiens, UniProt P62280); test: as above; conditions: Comp; protein RPS11 P62280
[9] = target: proteins of HEK293T cells transiently overexpressing caspase-6 (Homo sapiens, UniProt P57088); test: as above; conditions: Comp; protein TMEM33 P57088
Chain of proteins of HEK293T cells transiently overexpressing caspase-6 (Homo sapiens, UniProt P57088) (P57088 whole entry): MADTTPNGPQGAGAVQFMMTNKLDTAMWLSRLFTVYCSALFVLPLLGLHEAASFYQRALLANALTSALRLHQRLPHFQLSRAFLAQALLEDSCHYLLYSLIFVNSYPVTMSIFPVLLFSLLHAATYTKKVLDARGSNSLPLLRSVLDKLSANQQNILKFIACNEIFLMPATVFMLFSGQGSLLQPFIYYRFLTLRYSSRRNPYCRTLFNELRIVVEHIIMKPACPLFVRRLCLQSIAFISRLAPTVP

[10] = target: T2, proteins of HEK293T cells transiently overexpressing caspase-6 (Homo sapiens, UniProt P50990); test: as above; conditions: Comp; protein CCT8 P50990
T2 sequence (P50990 1-548): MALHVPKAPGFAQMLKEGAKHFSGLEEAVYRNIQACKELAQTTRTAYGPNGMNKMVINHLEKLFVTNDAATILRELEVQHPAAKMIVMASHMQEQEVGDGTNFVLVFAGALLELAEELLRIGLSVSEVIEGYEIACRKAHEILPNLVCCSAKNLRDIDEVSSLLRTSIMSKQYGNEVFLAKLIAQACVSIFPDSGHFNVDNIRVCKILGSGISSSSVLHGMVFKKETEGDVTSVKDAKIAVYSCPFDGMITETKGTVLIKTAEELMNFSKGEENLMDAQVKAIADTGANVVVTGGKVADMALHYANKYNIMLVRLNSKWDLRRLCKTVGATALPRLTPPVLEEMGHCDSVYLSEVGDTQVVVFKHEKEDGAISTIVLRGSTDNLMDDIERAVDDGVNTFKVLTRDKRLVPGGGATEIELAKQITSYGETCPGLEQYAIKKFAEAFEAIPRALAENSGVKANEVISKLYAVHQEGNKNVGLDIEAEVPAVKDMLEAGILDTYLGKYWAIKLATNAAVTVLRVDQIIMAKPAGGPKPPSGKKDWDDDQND

[11] = target: T3, caspase-3 (C3) (Homo sapiens, UniProt P42574); test: Caspase-3 biochemical activity assay with fluorogenic substrate
T3 sequence (P42574 29-175 limits assumed): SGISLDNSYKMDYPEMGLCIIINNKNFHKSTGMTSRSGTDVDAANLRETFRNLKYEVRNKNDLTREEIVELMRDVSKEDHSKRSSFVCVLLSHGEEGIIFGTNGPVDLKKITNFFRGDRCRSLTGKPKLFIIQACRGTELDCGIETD
From the text: as §1

[12] = protein RARS (P54136), Exp Comp, analysis C6, p 0.0312, 7 peptides
[13] = protein DYNC1H1 (Q14204), Exp Comp, analysis C6, p 0.1250, 4 peptides

C=CS(=O)(=O)N1C[C@H](C(=O)Nc2ccc(OC(F)(F)F)cc2)C[C@@H](c2ccccc2)C1 [3a] was tested, and the “activity against C2 (in words)” value [1] was “lack of activity”, the enrich.exp.med [2] was 0.7055 and the enrich.exp.med ([3]; Comp, protein RARS P54136) was 1.077. For the same compound, the enrich.exp.med.lin [3, 12] was 2.11, the enrich.exp.med.log2 [3, 12] was 1.077 and the enrich.exp.med ([4]; Comp, protein DYNC1H1 Q14204) was 1.335. It also gave an enrich.exp.med.lin [4, 13] of 2.5227, an enrich.exp.med.log2 [4, 13] of 1.335 and an enrich.exp.med [5] of 0.8526. The enrich.exp.med [6] was 0.7274, the enrich.exp.med [7] was 0.7326 and the enrich.exp.med [8] was 0.7926. The enrich.exp.med [9] was 0.7492, the enrich.exp.med [10] was 0.6038 and the “activity against C3 (in words)” value [11] was “lack of activity”. For the same compound, the IC50 ([11]; read-out: Casp-3 IC50) was > 500 µM.
